One assay has as its target T1, EphB2-His-Fc / EB2-His (Mus musculus, UniProt P54763).
T1 construct: a dual-tagged EphB2-His-Fc ectodomain protein; mouse EB2-His residues 18-232; purchased R&D Systems (EphB-Fc); Sino Biologicals (EphrinB-His)
Description: pulldown EB2-His to EphB2-His-Fc. The format is binding.

A further assay has as its target EphrinB1-EphB2 (Homo sapiens, UniProt P29323). Kind of assay: Octet, immobilized human EphrinB1 binding to human EphB2. On the procedure:
(§1) Studies were conducted to confirm that A20 chemicals can effectively target the human Eph/Ephrin proteins. Octet system was used to first characterize the biophysical interactions of the human B class Eph and Ephrin proteins, and then was tested to assess how A20 may disrupt the interactions. Since the human and rodent proteins are highly conserved, and essentially identical, with EphB2 sharing 99.5% identity between human and mouse, with only 5 of ~1,000 amino acids different, any species-specific differences were not anticipated. Therefore, commercially available human EphrinB1-Fc (EB1), EphrinB2-Fc (EB2), and EphrinB3-Fc (EB3) ectodomain proteins were sparsely immobilized onto biosensors and then exposed to 50 nM of soluble human EphB1-His, EphB2-His, and EphB4-His ectodomains for 800 sec association and 1,000 sec dissociation steps with a total of nine different interactions analyzed. In the absence of A20 chemical, the immobilized human EphrinB proteins bound to their appropriate human EphB target proteins; with EphrinB1 only bound EphB1 and EphB2, EphrinB2 bound all three EphB1, EphB2, and EphB4, and EphrinB3 only bound EphB1 and EphB2 (FIG. 19A-19B).
(§2) Addition of compound also altered dissociation kinetics. […] This is referred to as the “unsurmountable” component of the Eph-Ephrin interaction (FIG. 21C). Additionally, AUC data was graphed for these runs (FIG. 21D). […]

The target of a further assay is EphrinB3-EphB1 (Homo sapiens, UniProt P54762). Description: Octet, immobilized human EphrinB3 binding to human EphB1. As for the experimental part: as §1, §2
The target of assay [1] is pre-formed EphrinB2-EphB1 tetramer (Homo sapiens, UniProt P54762). Kind of assay: Octet competition of pre-existing tetramers, human EphrinB2-EphB1. The format is binding. To be noted: 2, 10, 50 μM. As for the experimental part:
Biophysical studies were conducted to explore if A20 is able to disrupt pre-existing stable tetramers, focusing on interactions of immobilized human EphrinB2 binding to soluble human EphB1 and EphB2, and immobilized mouse EphB2 binding to mouse EphrinB2 (FIGS. 29A-29C). In these experiments, sensor-chip immobilized proteins were first exposed to 50 nM of their soluble target protein for an 800 sec association step and 1,000 sec dissociation step to generate pre-formed stable tetramers, which were then subjected to a 1,000 sec competition step that included either 0, 2, 10, or 50 μM concentrations of A20 salt compound. […] The ability of A20 to disrupt pre-existing tetramers was most pronounced for human EB2-EphB2 and cognate murine EphB2-EB2 experiments and indicated a gradual ongoing dose-dependent decline in tetramers throughout the 1,000 sec competition step (and beyond if allowed) and irrespective of whether the human EphrinB2 or murine EphB2 was the immobilized protein.

Assay [2] deals with morphine withdrawal in mice. Kind of assay: naloxone-precipitated morphine withdrawal behaviors. The class given is in vivo, mouse. To be noted: 30 mg/kg IP, 4×12 hr. As for the experimental part:
Eight month old male EphB1^+/+ WT mice EphB1^−/− KO mice from the Henkemeyer mouse colony were injected intraperitoneally (IP) with increasing morphine doses in normal saline every 12 h for 4 consecutive days (day 1:20 mg/kg, day 2:40 mg/kg, day 3:60 mg/kg, day 4:80 mg/kg) and on the fifth day in the morning they were injected with a final 100 mg/kg morphine dose which was staggered by one mouse every 30 minutes. Exactly 3 h after the last morphine injection, each mouse was weighed, and withdrawal was precipitated using naloxone hydrochloride that was subcutaneously injected at 1 mg/kg. Withdrawal signs were then monitored by an examiner who was blinded to animal genotypes for 30 min after naloxone administration to identify the number of jumps, wet dog shakes, and diarrhea events observed in the 30 min period, and % change in weight from before naloxone administration to 30 min post withdrawal. For tremor and ptosis, the presence of tremor and/or a drooping upper eyelid is monitored at the beginning of each 5 min interval during the 30 min monitoring period.
WT CD1 mice was used in one experiment and WT C57BL/6 mice was used in the other. All mice were 4-5-month-old males. In both cases, 30 mg/kg A20 free base dissolved in 6% DMSO/94% sunflower seed oil was administered in 4×12 hr IP dosings to mice that were at an entering dose 6 of a 9×12 hr IP schedule of escalating morphine (2×20, 2×40, 2×60, 2×80, and 1×100 mg/kg). Naloxone was given exactly 3 hr after the last A20/morphine dose and withdrawal behaviors were monitored for 30 min. Both groups of mice were scored for jumping (FIG. 70A) and the C57BL/6 mice were additionally scored at 5 min intervals for diarrhea, tremor, and ptosis (FIG. 70B). […] In summary, A20 tetramerization inhibitor compounds serve to help reduce the adverse effects of opioid use and abuse, and could possibly be used to help wean people off of terribly addictive narcotic drugs.

[3] abbreviates: read-out: concentration producing maximum inhibition.

SMILES strings stand for the structures. pIC50: −log10 of the molar value.

Sequence of EphrinB1-EphB2 (P29323 19-543 limits assumed): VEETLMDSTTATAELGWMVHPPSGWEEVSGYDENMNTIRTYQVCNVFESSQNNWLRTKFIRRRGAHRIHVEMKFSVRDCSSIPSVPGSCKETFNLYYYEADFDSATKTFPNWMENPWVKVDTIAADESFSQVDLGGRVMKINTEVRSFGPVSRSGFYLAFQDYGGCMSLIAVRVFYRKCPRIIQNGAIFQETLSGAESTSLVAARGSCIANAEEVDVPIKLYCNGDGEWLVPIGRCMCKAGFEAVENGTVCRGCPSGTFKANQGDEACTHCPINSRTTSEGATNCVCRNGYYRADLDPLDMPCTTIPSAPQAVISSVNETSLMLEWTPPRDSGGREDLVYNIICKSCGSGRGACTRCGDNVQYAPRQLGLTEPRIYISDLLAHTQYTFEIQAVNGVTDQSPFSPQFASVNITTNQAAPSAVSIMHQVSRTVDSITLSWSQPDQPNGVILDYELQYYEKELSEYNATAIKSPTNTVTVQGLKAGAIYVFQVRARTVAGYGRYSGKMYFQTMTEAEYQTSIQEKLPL
T1 sequence (P54763 19-543 limits assumed): as the sequence (P29323 19-543 limits assumed) above, with S104L, S154N, Q520K counted along it
Sequence of EphrinB3-EphB1 (P54762 18-540 limits assumed): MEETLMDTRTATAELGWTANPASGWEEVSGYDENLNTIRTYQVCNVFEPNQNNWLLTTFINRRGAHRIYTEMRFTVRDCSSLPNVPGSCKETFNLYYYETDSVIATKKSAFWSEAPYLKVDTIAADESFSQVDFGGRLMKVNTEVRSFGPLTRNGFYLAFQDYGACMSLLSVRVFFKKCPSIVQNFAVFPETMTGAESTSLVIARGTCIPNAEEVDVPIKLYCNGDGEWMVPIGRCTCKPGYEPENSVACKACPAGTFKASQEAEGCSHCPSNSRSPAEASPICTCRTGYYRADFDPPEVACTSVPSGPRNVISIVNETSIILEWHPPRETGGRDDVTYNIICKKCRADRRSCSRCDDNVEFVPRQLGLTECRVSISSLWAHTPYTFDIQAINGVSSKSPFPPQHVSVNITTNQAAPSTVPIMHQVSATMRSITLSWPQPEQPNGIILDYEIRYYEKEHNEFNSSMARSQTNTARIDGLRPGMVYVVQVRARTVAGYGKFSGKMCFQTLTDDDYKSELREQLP
Sequence of pre-formed EphrinB2-EphB1 tetramer (P54762 18-540 limits assumed): as above

Take `Oc1c(Br)cc(CN2CCOCC2)c2cccnc12` [Compound 5, 7-bromo-5-(morpholinomethyl)quinolin-8-ol]: the “pulldown EphB2 binding to EB2-His” value at EphB2-His-Fc / EB2-His is on record as “strong dose-dependent ability to antagonize EphB2-His-Fc protein binding to EB2-His”. On EphB2-His-Fc / EB2-His (pulldown, EphB2), this molecule had a negative logarithm of the IC50 (pIC50) of roughly 5.00. For the same molecule, at EphrinB1-EphB2 (EB1-EphB2, A20, read-out: reduction of tetramers), the inhibition at 1 µM was roughly 45%. Besides, the IC (maximum) at EphrinB1-EphB2 (setting [3]) came to 1 µM. The “reduction of tetramer formation” value at EphrinB3-EphB1 (EB3-EphB1, A20) is 40%. The IC (maximum) on EphrinB3-EphB1 (setting [3]) stood at 10 µM. The “competition of pre-formed tetramers” value in assay [1] is “clearly disrupted in a dose-dependent fashion some of the pre-existing EB2-EphB1 tetramers”. In addition, in assay [2], the “diarrhea and ptosis” value was “did not show signs of diarrhea or ptosis”; the “jumps” value is given as “significantly fewer jumps”; the tremor reduction came out at 50%.

The record behind these values is patent publication US20260374739A1, “SMALL MOLECULAR WEIGHT CHEMICAL COMPOUND TO ANTAGONIZE EPH-EPHRIN TETRAMERIZATION AND INHIBIT BIDIRECTIONAL SIGNALING” (THE BOARD OF REGENTS OF THE UNIVERSITY OF TEXAS SYSTEM, priority 2022, published 2026).
